How the values were obtained:
KRas^G12D = molecular target: T1, KRas^G12D (Homo sapiens, UniProt P01116, G12D); assay: KRas binding assay (TR-FRET tracer displacement), KRas G12D
T1 construct: Biotinylated KRas (corresponding to amino acids 1-169, produced at Accelegan Inc.); biotin (biotinylated); purchased Accelegan Inc

KRas^G12R = molecular target: T2, KRas^G12R (Homo sapiens, UniProt P01116, G12R); assay: KRas binding assay (TR-FRET tracer displacement), KRas G12R
T2 construct: Biotinylated KRas (corresponding to amino acids 1-169, produced at Accelegan Inc.); biotin (biotinylated); purchased Accelegan Inc
T2 sequence (P01116 1-169 isoform P01116-2 G12R): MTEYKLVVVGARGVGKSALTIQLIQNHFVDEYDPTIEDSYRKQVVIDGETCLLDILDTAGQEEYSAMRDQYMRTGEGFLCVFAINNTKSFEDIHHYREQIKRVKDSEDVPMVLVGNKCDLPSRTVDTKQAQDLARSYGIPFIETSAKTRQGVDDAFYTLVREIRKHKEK

KRas^G12V = molecular target: T3, KRas^G12V (Homo sapiens, UniProt P01116, G12V); assay: KRas binding assay (TR-FRET tracer displacement), KRas G12V
T3 construct: Biotinylated KRas (corresponding to amino acids 1-169, produced at Accelegan Inc.); biotin (biotinylated); purchased Accelegan Inc
T3 sequence (P01116 1-169 isoform P01116-2 G12V): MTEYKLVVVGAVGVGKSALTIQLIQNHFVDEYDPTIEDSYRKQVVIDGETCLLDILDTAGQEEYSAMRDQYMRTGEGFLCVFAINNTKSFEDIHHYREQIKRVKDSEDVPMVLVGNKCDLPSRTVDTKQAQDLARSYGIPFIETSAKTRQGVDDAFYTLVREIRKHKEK

[1] = system: KRas-mediated phosphorylation of ERK in AsPC-1 cells; assay: Inhibition of KRas-mediated phosphorylation of ERK (Cisbio HTRF pERK), AsPC-1 cells; format: cell-based; settings: Homo sapiens, ASPC1, AsPC-1 cells; HTRF pERK
In short: (§1)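 Signal read by HTRF (d2/Cryptate antibody pair, 2 hr room-temperature incubation on lysate). Cells: 6,000 per well, 3 hr compound exposure. Titration: 10 uM highest, 3-fold, 10 points.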

[2] = system: KRas-mediated phosphorylation of ERK in H727 cells; assay: Inhibition of KRas-mediated phosphorylation of ERK (Cisbio HTRF pERK), H727 cells; format: cell-based; settings: Homo sapiens, NCI-H727, H727 cells; HTRF pERK
In short: as §1

T1 sequence (P01116 1-169 isoform P01116-2 G12D): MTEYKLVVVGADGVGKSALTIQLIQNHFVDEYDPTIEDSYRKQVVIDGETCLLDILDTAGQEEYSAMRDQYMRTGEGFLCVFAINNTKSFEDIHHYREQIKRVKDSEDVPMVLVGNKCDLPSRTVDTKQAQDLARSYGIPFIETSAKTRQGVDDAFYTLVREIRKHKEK

Structure (SMILES) | IC50 (KRas^G12D) [nM] | IC50 (KRas^G12R) [nM] | IC50 (KRas^G12V) [nM] | IC50 [1] [nM] | IC50 [2] [nM]
CCc1c(F)ccc2cc(O)cc(-c3ncc4c(N5CCC6(CC5)OCCC6C#N)nc(OC[C@@]56CCCN5C[C@H](F)C6)nc4c3F)c12 (stereo partly drawn) [Example 612, 8-(7-(8-ethyl-7-fluoro-3-hydroxynaphthalen-1-yl)-8-fluoro-2-(((2R,7aS)-2-fluorohexahydro-1H-pyrrolizin-7a-yl)methoxy)pyrido[4,3-d]pyrimidin-4-yl)-1-oxa-8-azaspiro[4.5]decane-4-carbonitrile] | 4250 | 911 | 474 | > 10000 | > 10000
CCc1c(F)ccc2cc(O)cc(-c3ncc4c(N5CCCC(S(=O)(=O)C(F)F)C5)nc(OC[C@@]56CCCN5C[C@H](F)C6)nc4c3F)c12 (stereo partly drawn) [Example 652, 4-(4-(3-((difluoromethyl)sulfonyl)piperidin-1-yl)-8-fluoro-2-(((2R,7aS)-2-fluorotetrahydro-1H-pyrrolizin-7a(5H)-yl)methoxy)pyrido[4,3-d]pyrimidin-7-yl)-5-ethyl-6-fluoronaphthalen-2-ol] | 125 | 51 | 40 | 2280 | 1390
CCc1c(F)ccc2cc(O)cc(-c3ncc4c(N5CC[C@@H]6C(=O)NC(=O)[C@@H]6CC5)nc(OC[C@@]56CCCN5C[C@H](F)C6)nc4c3F)c12 [Example 614, (3aR,8aS)-6-(7-(8-ethyl-7-fluoro-3-hydroxynaphthalen-1-yl)-8-fluoro-2-(((2R,7aS)-2-fluorohexahydro-1H-pyrrolizin-7a-yl)methoxy)pyrido[4,3-d]pyrimidin-4-yl)hexahydropyrrolo[3,4-d]azepine-1,3(2H,3aH)-dione] | 805 | 701 | 398 | > 10000 | > 10000
CCc1c(F)ccc2cc(O)cc(-c3ncc4c(N5CCOC[C@@](C)(COC)C5)nc(OC[C@@]56CCCN5C[C@H](F)C6)nc4c3F)c12 [Example 602, 5-ethyl-6-fluoro-4-(8-fluoro-2-(((2R,7aS)-2-fluorotetrahydro-1H-pyrrolizin-7a(5H)-yl)methoxy)-4-((R)-6-(methoxymethyl)-6-methyl-1,4-oxazepan-4-yl)pyrido[4,3-d]pyrimidin-7-yl)naphthalen-2-ol] | 484 | 161 | 243 | 5460 | 3870
CCc1c(F)ccc2cc(O)cc(-c3ncc4c(N5CCC(N6CCCCS6(=O)=O)C5)nc(OC[C@@]56CCCN5C[C@H](F)C6)nc4c3F)c12 (stereo partly drawn) [Example 655, 2-(1-(7-(8-ethyl-7-fluoro-3-hydroxynaphthalen-1-yl)-8-fluoro-2-(((2R,7aS)-2-fluorotetrahydro-1H-pyrrolizin-7a(5H)-yl)methoxy)pyrido[4,3-d]pyrimidin-4-yl)pyrrolidin-3-yl)-1,2-thiazinane 1,1-dioxide] | 2880 | 633 | 291 | > 10000 | > 10000
CCc1c(F)ccc2cc(O)cc(-c3ncc4c(N5CCO[C@@H](CS(N)(=O)=O)C5)nc(OC[C@@]56CCCN5C[C@H](F)C6)nc4c3F)c12 [Example 636, 1-((R)-4-(7-(8-ethyl-7-fluoro-3-hydroxynaphthalen-1-yl)-8-fluoro-2-(((2R,7aS)-2-fluorotetrahydro-1H-pyrrolizin-7a(5H)-yl)methoxy)pyrido[4,3-d]pyrimidin-4-yl)morpholin-2-yl)methanesulfonamide] | 10 | < 2 | 3 | 4190 | 1810
CCc1c(F)ccc2cc(O)cc(-c3ncc4c(N5CC6CCC(CCC(N)=O)(C6)C5)nc(OC[C@@]56CCCN5C[C@H](F)C6)nc4c3F)c12 (stereo partly drawn) [Example 910, 3-(3-(7-(8-ethyl-7-fluoro-3-hydroxynaphthalen-1-yl)-8-fluoro-2-(((2R,7aS)-2-fluorotetrahydro-1H-pyrrolizin-7a(5H)-yl)methoxy)pyrido[4,3-d]pyrimidin-4-yl)-3-azabicyclo[3.2.1]octan-1-yl)propanamide] | 22 | 9 | 8 | 8160 | 1670
CCc1c(F)ccc2cc(O)cc(-c3ncc4c(NCc5cn(C(=O)N(C)C)nc5NC(C)=O)nc(OC[C@@]56CCCN5C[C@H](F)C6)nc4c3F)c12 [Example 675, 3-acetamido-4-(((7-(8-ethyl-7-fluoro-3-hydroxynaphthalen-1-yl)-8-fluoro-2-(((2R,7aS)-2-fluorohexahydro-1H-pyrrolizin-7a-yl)methoxy)pyrido[4,3-d]pyrimidin-4-yl)amino)methyl)-N,N-dimethyl-1H-pyrazole-1-carboxamide] | 32 | < 2 | 3 | 9490 | 2040
CCc1c(F)ccc2cc(O)cc(-c3ncc4c(N5CCCCC(P(C)(C)=O)C5)nc(OC[C@@]56CCCN5C[C@H](F)C6)nc4c3F)c12 (stereo partly drawn) [Example 627, (1-(7-(8-ethyl-7-fluoro-3-hydroxynaphthalen-1-yl)-8-fluoro-2-(((2R,7aS)-2-fluorohexahydro-1H-pyrrolizin-7a-yl)methoxy)pyrido[4,3-d]pyrimidin-4-yl)azepan-3-yl)dimethylphosphine oxide] | 35 | 27 | 12 | > 10000 | 4560
CCc1c(F)ccc2cc(O)cc(-c3ncc4c(N5Cc6c(C(=O)N(C)C)nn(C)c6C5)nc(OC[C@@]56CCCN5C[C@H](F)C6)nc4c3F)c12 [Example 867, 5-(7-(8-ethyl-7-fluoro-3-hydroxynaphthalen-1-yl)-8-fluoro-2-(((2R,7aS)-2-fluorotetrahydro-1H-pyrrolizin-7a(5H)-yl)methoxy)pyrido[4,3-d]pyrimidin-4-yl)-N,N, 1-trimethyl-1,4,5,6-tetrahydropyrrolo[3,4-c]pyrazole-3-carboxamide] | 527 | 253 | 97 | > 10000 | 3410
CCc1c(F)ccc2cc(O)cc(-c3ncc4c(NC56CCC(C#N)(CC5)CC6)nc(OC[C@@]56CCCN5C[C@H](F)C6)nc4c3F)c12 [Example 585, 4-((7-(8-ethyl-7-fluoro-3-hydroxynaphthalen-1-yl)-8-fluoro-2-(((2R,7aS)-2-fluorohexahydro-1H-pyrrolizin-7a-yl)methoxy)pyrido[4,3-d]pyrimidin-4-yl)amino)bicyclo[2.2.2]octane-1-carbonitrile] | 434 | 76 | 103 | 4610 | 2060
CCc1c(F)ccc2cc(O)cc(-c3ncc4c(N[C@H](C)CN5CC(C)(O)C5)nc(OC[C@@]56CCCN5C[C@H](F)C6)nc4c3F)c12 [Example 577, 1-((R)-2-((7-(8-ethyl-7-fluoro-3-hydroxynaphthalen-1-yl)-8-fluoro-2-(((2R,7aS)-2-fluorohexahydro-1H-pyrrolizin-7a-yl)methoxy)pyrido[4,3-d]pyrimidin-4-yl)amino)propyl)-3-methylazetidin-3-ol] | 29 | 727 | 606 | 8440 | > 10000

Source: patent US20260015350A1, “AZAQUINAZOLINE PAN-KRAS INHIBITORS” (Mirati Therapeutics, Inc., priority 2022, published 2026)
